In ChEMBL document CHEMBL1124285, “Conformational analysis and structural comparisons of (1R,3S)-(+)- and (1S,3R)-(-)-tefludazine, (S)-(+)- and (R)-(-)-octoclothepin, and (+)-dexclamol in relation to dopamine receptor antagonism and amine-uptake inhibition” (J Med Chem, 1988):

Key:
[1] = target: D(2) dopamine receptor (Rattus norvegicus, UniProt P61169); assay: Binding affinity against Dopamine receptor D2 using [3H]spiroperidol
[2] = organism: Rattus norvegicus; assay: Inhibition of [3H]-dopamine uptake in rat brain synaptosomes; assay type: functional, organism-based
[3] = organism: Rattus norvegicus; assay: Inhibition of [3H]norepinephrine uptake in rat brain synaptosomes; assay type: functional, organism-based

D(2) dopamine receptor, sequence (P61169 whole entry): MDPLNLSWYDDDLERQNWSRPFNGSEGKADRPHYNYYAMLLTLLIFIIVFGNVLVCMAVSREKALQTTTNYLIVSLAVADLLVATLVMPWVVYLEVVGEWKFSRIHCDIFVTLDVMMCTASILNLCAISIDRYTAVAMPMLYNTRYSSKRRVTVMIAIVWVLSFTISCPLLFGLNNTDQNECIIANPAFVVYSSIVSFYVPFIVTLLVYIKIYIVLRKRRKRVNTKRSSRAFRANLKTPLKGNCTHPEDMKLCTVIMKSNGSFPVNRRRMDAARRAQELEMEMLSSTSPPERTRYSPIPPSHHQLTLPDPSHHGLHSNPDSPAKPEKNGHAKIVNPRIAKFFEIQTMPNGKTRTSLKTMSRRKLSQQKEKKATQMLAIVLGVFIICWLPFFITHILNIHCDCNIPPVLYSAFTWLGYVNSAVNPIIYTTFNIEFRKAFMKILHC

Compound	IC50 [1] [nM]	IC50 ([2]; Rattus norvegicus, Brain, 3 h) [nM]	IC50 ([3]; Rattus norvegicus, Brain, 3 h) [nM]	IC50 [2] [nM]	IC50 [3] [nM]
CC(C)[C@]1(O)CCN2C[C@H]3c4ccccc4CCc4cccc(c43)[C@@H]2C1	6	–	–	–	–
OCCN1CCN([C@H]2C[C@H](c3ccc(F)cc3)c3ccc(C(F)(F)F)cc32)CC1	590	130	730	–	–
CN1CCN(C2Cc3ccccc3Sc3ccc(Cl)cc32)CC1 (racemic) [CLOROTEPINE]	–	6300	0.64	–	–
CC(C)[C@@]1(O)CCN2C[C@@H]3c4ccccc4CCc4cccc(c43)[C@H]2C1 [DEXCLAMOL]	900	–	–	–	–
OCCN1CCN([C@@H]2C[C@@H](c3ccc(F)cc3)c3ccc(C(F)(F)F)cc32)CC1 [TEFLUDAZINE]	14	2200	15000	–	–
(-)-BUTACLAMOL	–	–	–	9500	7400
